Tests used:
[1] = tested on: HCC1954 human breast cancer cells; assay: Inhibition of growth of a Her2-targeted agent resistant Her2+ cell line, DAPI nuclei count; type: cell-based; conditions: for resistance of the cell line to the agent used individually: HCC1954, as compared to SkBr3; for growth inhibitory effect (FIGS. 4A-B, 5A-B), in words: HCC1954, 6 days, IRX4204 10, 100 or 1000 nM
Protocol: HCC1954 is Her2^+ cancer cell line derived from a ductal carcinoma of the breast.
HCC1954 human breast cancer cells were seeded at 3000 cells per well in 96-well plates and treated with neratinib [1 or 10 nM] or DMSO (0.1%) in combination with IRX4204 [10, 100, or 1000 nM]. After 6 days of treatment, cells were fixed with 4% paraformaldehyde. Nuclei were stained with DAPI, imaged using ImageXpress® Pico (Molecular Devices) and counted using CellReporterXpress® Analysis Software (FIGS. 4A-B) Each data point represents six replicates. Statistical significance was determined using the Bonferroni-Dunn method of multiple t-tests. Each day was analyzed individually, without assuming a consistent SD (*p<0.01).
The experiment was also conducted using tucatinib or lapatinib in place of neratinib.

RXR homodimers = assay: Activation of RXR homodimers
LXR/RXR = assay: Activation of permissive RXR heterodimers
RAR/RXR = assay: Activation of non-permissive RXR heterodimers
MDA-MB-361 cells = assay: Inhibition of breast cancer cell growth, DAPI nuclei count; type: cell-based; conditions: IRX4204 1000 nM; for inhibition at 1 µM: Homo sapiens
Excerpt: (§1) MCF7 is an ER^+ PR^+ Her2^− cell line. SkBr3 is an ER^− PR^− Her2^+ cell line. […] After a further 6 days, the cells were fixed with 4% paraformaldehyde in phosphate buffered saline (PBS). Nuclei were then stained with DAPI and imaged with the MetaXpress® microscope (Molecular Devices, San Jose, CA). Cell nuclei were segmented and then counted by defining pixel intensity over background and object size, using the algorithm of the MetaXpress® image analysis software. Experimental data points were performed at a minimum of quadruplicate, and results were reported as average cell count ±standard deviation (SD).
(§2) To assess if this improved growth inhibition effect was synergistic, the percent inhibition observed for the highest concentrations of the combined therapeutic agents was compared to the percent inhibition that would be expected for the combination based on the observed inhibition of the therapeutic agents used alone, if the agents acting independently, that is, without interaction (see Table 1). That is, PAE=(FE1+((1−FE1)×FE2))×100, where PAE is the predicted additive effect, FE1 is the observed fractional effect of a 1st treatment, and FE2 is the observed fractional effect of a 2nd treatment.
(§3) Additionally the panel of breast cancer cell lines was expanded to also include the ER^+ PR^+ Her2^+ cell line BT474 and the ER^+ PR^− Her2^+ cell line MDA-MB-361.
(§4) To assess if this improved growth inhibition effect was synergistic, the percent inhibition observed for the highest concentrations of the combined therapeutic agents was compared to the percent inhibition that would be expected for the combination based on the observed inhibition of the therapeutic agents used alone, if the agents acting independently, that is, without interaction (see Tables 2-4).

BT474 cells = assay: as above; type: cell-based; conditions: IRX4204 1000 nM; for inhibition at 1 µM: Homo sapiens
Excerpt: as §1, §2, §3, §4

FXR/RXR = assay: Activation of permissive RXR heterodimers
SkBr3 cells = assay: Inhibition of breast cancer cell growth, DAPI nuclei count; type: cell-based; conditions: for inhibition at 1 µM: Homo sapiens; for inhibition at 1 µM / DAPI Nuclei Count: SkBr3 cells, IRX4204 1000 nM
Excerpt: MCF7 is an ER^+ PR^+ Her2^− cell line. SkBr3 is an ER^− PR^− Her2^+ cell line. […] After a further 6 days, the cells were fixed with 4% paraformaldehyde in phosphate buffered saline (PBS). Nuclei were then stained with DAPI and imaged with the MetaXpress® microscope (Molecular Devices, San Jose, CA). Cell nuclei were segmented and then counted by defining pixel intensity over background and object size, using the algorithm of the MetaXpress® image analysis software. […]

MCF7 cells = assay: as above; type: cell-based; conditions: Her2− MCF7 cells; IRX4204 0-1000 nM, trastuzumab 0-10 μg/ml; 6 days
Excerpt: MCF7 is an ER^+ PR^+ Her2^− cell line. SkBr3 is an ER^− PR^− Her2^+ cell line. […] After a further 6 days, the cells were fixed with 4% paraformaldehyde in phosphate buffered saline (PBS). Nuclei were then stained with DAPI and imaged with the MetaXpress® microscope (Molecular Devices, San Jose, CA). Cell nuclei were segmented and then counted by defining pixel intensity over background and object size, using the algorithm of the MetaXpress® image analysis software.
as §3

Nurr1/RXR heterodimer = assay: Activation of permissive RXR heterodimers
PPAR/RXR = assay: Activation of permissive RXR heterodimers
[2] = tested on: PPAR/RXR, FXR/RXR, or LXR/RXR; conditions: cited from earlier work
AU565 = assay: IC50 of Her2 kinase inhibitors on Her2-amplified cell lines; type: cell-based; conditions: Homo sapiens
HCC1954 = assay: as above; type: cell-based; conditions: Homo sapiens
SkBr3 = assay: as above; type: cell-based; conditions: Homo sapiens, SK-BR-3
[3] = MDA-MB-361 cells, lapatinib experiment, Lapatinib 1000 nM, control 6696
[4] = MDA-MB-361 cells, neratinib experiment, Neratinib 1000 nM, control 5297
[5] = BT-474, lapatinib experiment, Lapatinib 1000 nM
[6] = BT-474, neratinib experiment, Neratinib 1000 nM
[7] = lapatinib experiment, Lapatinib 1000 nM, control 2937
[8] = neratinib experiment, Neratinib 1000 nM, control 2192
[9] = SK-BR-3, lapatinib experiment, Lapatinib 1000 nM
[10] = SK-BR-3, neratinib experiment, Neratinib 1000 nM
[11] = lapatinib experiment, Lapatinib 1000 nM, control 19855
[12] = neratinib experiment, Neratinib 1000 nM, control 6696

| SMILES | resistance of the cell line to the agent used individually [1] | growth inhibitory effect (FIGS. 4A-B, 5A-B), in words [1] | DAPI Nuclei Count (MDA-MB-361 cells; [3]) | DAPI Nuclei Count (MDA-MB-361 cells; [4]) | inhibition at 1 µM (BT474 cells; [5]) | inhibition at 1 µM (BT474 cells; [6]) | DAPI Nuclei Count (BT474 cells; [7]) | DAPI Nuclei Count (BT474 cells; [8]) | inhibition at 1 µM (SkBr3 cells; [9]) | inhibition at 1 µM (SkBr3 cells; [10]) | DAPI Nuclei Count (SkBr3 cells; [11]) | DAPI Nuclei Count (SkBr3 cells; [12]) | IC50 (AU565) | IC50 (HCC1954) | IC50 (SkBr3) | also measured |
| --- | --- | --- | --- | --- | --- | --- | --- | --- | --- | --- | --- | --- | --- | --- | --- | --- |
| CC(/C=C/[C@@H]1C[C@]1(C)c1ccc2c(c1)C(C)(C)CCC2(C)C)=C\C(=O)O [IRX4204, 3,7-dimethyl-6(S),7(S)-methano,7-[1,1,4,4-tetramethyl-1,2,3,4-tetrahydron-aphth-7-yl]2(E), 4(E) heptadienoic acid] | highly resistant | no growth inhibitory effect | 5218 | 2459 | -15.7% | 6.8% | 3399 | 2043 | 4.8% | 22.1% | 18906 | 5218 | – | – | – | activation of RXR homodimers, in words (RXR homodimers): specifically activate; activation of heterodimer, in words (LXR/RXR): does not activate; activation of heterodimer, in words (RAR/RXR): does not activate; inhibition at 1 µM (MDA-MB-361 cells; MDA-MB-361, MDA-MB-361 cells, lapatinib experiment, Lapatinib 1000 nM): 22.1%; inhibition at 1 µM (MDA-MB-361 cells; MDA-MB-361, MDA-MB-361 cells, neratinib experiment, Neratinib 1000 nM): 43.6%; activation of heterodimer, in words (FXR/RXR): does not activate; growth inhibitory effect (FIG. 1B), in words (SkBr3 cells; Her2+ SkBr3 cells, IRX4204 0-1000 nM, trastuzumab 0-10 μg/ml, 6 days): moderate growth inhibitory effect; inhibition at 1 µM (SkBr3 cells; SK-BR-3, 144 h, 6 days, Herceptin 1000 ng, alone or combined): 29.4%; DAPI Nuclei Count (SkBr3 cells; 6 days, Herceptin 1000 ng, alone or combined, control 25958): 18274; growth inhibitory effect (FIG. 1A), in words (MCF7 cells): neither agent had more than marginal effect; activation of heterodimer, in words (Nurr1/RXR heterodimer): specifically activates; activation of heterodimer, in words (PPAR/RXR): does not activate |
| Cc1cc2c(cc1C1(c3ccc(C(=O)O)cn3)CC1)C(C)(C)CCC2(C)C [LGD268] | – | – | – | – | – | – | – | – | – | – | – | – | – | – | – | activation of one or more of PPAR/RXR, FXR/RXR, or LXR/RXR, in words [2]: activates |
| CS(=O)(=O)CCNCc1ccc(-c2ccc3ncnc(Nc4ccc(OCc5cccc(F)c5)c(Cl)c4)c3c2)o1 [Lapatinib, reference compound] | resistant | some small effect | 903 | – | 58.8% | – | 1211 | – | 88.9% | – | 2211 | – | 294 nM | > 1400 nM | 152 nM | inhibition at 1 µM (MDA-MB-361 cells; MDA-MB-361 cells, lapatinib experiment, Lapatinib 1000 nM): 86.5% |
| CCOc1cc2ncc(C#N)c(Nc3ccc(OCc4ccccn4)c(Cl)c3)c2cc1NC(=O)/C=C/CN(C)C [Neratinib, reference compound] | resistant | – | – | 249 | – | 91.8% | – | 180 | – | 86.5% | – | 903 | 20 nM | > 100 nM | 7 nM | inhibition at 1 µM (MDA-MB-361 cells; MDA-MB-361 cells, neratinib experiment, Neratinib 1000 nM): 95.3% |
| Cc1cc(Nc2ncnc3ccc(NC4=NC(C)(C)CO4)cc23)ccc1Oc1ccn2ncnc2c1 [Tucatinib] | resistant | some small effect | – | – | – | – | – | – | – | – | – | – | – | > 2000 nM | 22 nM | – |
